Measured values as given in patent US20240166635A1, “AMINOHETEROARYL KINASE INHIBITORS” (Anrui Biomedical Technology (Guangzhou) Co.,Ltd., priority 2020, published 2024).

Experiments:
Assay type in all cases: biochemical
CDK9/CyclinT1 = CDK9/CyclinT1 (Homo sapiens (Human), UniProt P50750); test: CDK9/CyclinT1 kinase inhibitory activity (Caliper mobility shift); details: read-out: CDK9/Cyclin T1 IC50
CDK2/CyclinE1 = CDK2/CyclinE1 (Homo sapiens (Human), UniProt P24941); test: CDK2/CyclinE1 kinase inhibitory activity (Caliper mobility shift); details: read-out: CDK2/Cyclin El IC50
CDK1/CyclinB = CDK1/CyclinB (Homo sapiens (Human), UniProt P06493); test: CDK1/CyclinB kinase inhibitory activity (Caliper mobility shift); details: read-out: CDK1/Cyclin B1 IC50
Chain of CDK1/CyclinB (P06493 whole entry): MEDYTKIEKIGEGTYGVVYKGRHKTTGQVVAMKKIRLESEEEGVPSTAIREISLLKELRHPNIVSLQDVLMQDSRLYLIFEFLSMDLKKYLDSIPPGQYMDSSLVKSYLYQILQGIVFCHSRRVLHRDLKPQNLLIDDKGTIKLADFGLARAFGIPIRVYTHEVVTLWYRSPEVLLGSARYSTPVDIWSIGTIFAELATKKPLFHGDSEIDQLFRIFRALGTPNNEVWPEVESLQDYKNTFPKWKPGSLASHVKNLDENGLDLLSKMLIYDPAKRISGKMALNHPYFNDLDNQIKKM
Chain of CDK1/CyclinB (P14635 whole entry partner): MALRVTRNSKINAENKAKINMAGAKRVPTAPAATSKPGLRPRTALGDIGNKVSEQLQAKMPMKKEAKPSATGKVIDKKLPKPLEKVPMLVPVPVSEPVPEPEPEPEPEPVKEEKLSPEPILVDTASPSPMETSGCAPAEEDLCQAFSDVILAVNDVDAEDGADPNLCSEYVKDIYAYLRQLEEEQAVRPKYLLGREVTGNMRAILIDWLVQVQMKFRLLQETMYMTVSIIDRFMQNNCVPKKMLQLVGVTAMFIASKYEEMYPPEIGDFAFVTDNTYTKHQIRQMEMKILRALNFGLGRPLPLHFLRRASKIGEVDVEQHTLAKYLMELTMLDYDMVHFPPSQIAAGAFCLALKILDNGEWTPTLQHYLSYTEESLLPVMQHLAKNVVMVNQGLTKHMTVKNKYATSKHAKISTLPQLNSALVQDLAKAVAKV

CDK7/CyclinH/MAT1 = CDK7/CyclinH/MAT1 (Homo sapiens (Human), UniProt P50613); test: CDK7/CyclinH/MAT1 kinase inhibitory activity (Caliper mobility shift)
Chain of CDK7/CyclinH/MAT1 (P50613 whole entry): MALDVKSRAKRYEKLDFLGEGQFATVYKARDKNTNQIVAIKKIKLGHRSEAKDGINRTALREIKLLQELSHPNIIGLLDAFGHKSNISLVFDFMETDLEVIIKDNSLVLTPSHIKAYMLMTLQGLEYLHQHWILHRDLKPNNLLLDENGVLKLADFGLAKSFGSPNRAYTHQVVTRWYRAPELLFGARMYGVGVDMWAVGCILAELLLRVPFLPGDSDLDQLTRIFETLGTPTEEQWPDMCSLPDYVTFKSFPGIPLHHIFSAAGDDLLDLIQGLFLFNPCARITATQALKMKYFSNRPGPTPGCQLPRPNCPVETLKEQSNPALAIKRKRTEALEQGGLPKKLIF
Chain of CDK7/CyclinH/MAT1 (P51946 whole entry partner): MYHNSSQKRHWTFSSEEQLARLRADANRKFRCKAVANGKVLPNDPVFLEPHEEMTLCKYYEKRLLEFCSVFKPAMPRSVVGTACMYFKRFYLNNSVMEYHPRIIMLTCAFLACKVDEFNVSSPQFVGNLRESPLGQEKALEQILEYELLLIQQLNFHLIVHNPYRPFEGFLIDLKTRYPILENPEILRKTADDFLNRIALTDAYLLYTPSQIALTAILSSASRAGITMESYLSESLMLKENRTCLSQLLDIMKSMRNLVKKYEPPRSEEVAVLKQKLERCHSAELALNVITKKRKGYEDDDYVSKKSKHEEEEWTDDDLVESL
Chain of CDK7/CyclinH/MAT1 (P51948 whole entry partner): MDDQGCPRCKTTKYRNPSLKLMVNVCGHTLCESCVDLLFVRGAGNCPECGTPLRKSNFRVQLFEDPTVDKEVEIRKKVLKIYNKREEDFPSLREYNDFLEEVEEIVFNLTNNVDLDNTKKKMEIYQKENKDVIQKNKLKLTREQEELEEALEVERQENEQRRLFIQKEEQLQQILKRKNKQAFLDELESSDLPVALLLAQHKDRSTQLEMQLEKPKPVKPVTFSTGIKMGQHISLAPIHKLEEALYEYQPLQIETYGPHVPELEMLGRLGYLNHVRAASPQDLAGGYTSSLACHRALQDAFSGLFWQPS

CDK4/Cyclin D1 = CDK4/Cyclin D1 (Homo sapiens (Human), UniProt P11802); test: CDK4/CyclinD1 kinase inhibitory activity (Caliper mobility shift)
Chain of CDK4/Cyclin D1 (P11802 whole entry): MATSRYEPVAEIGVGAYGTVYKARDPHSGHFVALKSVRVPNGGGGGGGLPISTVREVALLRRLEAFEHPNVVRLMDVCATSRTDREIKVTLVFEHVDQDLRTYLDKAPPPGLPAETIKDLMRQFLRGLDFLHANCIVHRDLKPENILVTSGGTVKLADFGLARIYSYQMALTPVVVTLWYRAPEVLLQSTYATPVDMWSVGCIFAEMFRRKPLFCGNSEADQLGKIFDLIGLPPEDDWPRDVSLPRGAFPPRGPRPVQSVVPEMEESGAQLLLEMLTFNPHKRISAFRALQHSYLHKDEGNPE
Chain of CDK4/Cyclin D1 (P24385 whole entry partner): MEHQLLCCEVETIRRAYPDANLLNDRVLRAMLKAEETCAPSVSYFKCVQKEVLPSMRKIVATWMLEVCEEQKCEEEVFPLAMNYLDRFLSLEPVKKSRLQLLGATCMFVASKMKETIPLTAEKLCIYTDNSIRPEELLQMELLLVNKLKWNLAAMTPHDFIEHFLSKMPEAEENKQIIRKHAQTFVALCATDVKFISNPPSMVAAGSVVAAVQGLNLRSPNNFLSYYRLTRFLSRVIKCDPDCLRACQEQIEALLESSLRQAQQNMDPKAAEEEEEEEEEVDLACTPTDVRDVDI

CDK6/CyclinD1 = CDK6/CyclinD1 (Homo sapiens (Human), UniProt Q00534); test: CDK6/CyclinD1 kinase inhibitory activity (Caliper mobility shift); details: read-out: CDK6/Cyclin D1 IC50
Chain of CDK6/CyclinD1 (Q00534 whole entry): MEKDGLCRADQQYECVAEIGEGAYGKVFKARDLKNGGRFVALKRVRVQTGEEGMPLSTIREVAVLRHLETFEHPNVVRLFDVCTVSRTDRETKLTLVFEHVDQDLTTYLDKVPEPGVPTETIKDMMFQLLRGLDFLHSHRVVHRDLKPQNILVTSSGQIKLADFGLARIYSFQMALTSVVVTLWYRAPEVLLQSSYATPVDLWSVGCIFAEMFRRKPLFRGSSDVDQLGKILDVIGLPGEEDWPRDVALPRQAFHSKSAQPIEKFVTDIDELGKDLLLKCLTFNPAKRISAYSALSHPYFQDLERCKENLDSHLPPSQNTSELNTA
Chain of CDK6/CyclinD1 (P24385 whole entry partner): as the sequence (P24385 whole entry partner) above

Chain of CDK9/CyclinT1 (P50750 whole entry): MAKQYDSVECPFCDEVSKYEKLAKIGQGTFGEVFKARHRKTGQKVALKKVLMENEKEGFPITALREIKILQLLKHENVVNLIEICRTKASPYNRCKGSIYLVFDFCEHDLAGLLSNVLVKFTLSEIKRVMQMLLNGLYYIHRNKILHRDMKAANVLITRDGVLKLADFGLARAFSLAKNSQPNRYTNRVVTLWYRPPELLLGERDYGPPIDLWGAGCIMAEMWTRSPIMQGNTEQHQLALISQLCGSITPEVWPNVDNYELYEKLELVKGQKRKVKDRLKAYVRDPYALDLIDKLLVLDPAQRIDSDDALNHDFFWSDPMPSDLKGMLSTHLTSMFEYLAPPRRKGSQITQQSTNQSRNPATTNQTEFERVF
Chain of CDK9/CyclinT1 (O60563 whole entry partner): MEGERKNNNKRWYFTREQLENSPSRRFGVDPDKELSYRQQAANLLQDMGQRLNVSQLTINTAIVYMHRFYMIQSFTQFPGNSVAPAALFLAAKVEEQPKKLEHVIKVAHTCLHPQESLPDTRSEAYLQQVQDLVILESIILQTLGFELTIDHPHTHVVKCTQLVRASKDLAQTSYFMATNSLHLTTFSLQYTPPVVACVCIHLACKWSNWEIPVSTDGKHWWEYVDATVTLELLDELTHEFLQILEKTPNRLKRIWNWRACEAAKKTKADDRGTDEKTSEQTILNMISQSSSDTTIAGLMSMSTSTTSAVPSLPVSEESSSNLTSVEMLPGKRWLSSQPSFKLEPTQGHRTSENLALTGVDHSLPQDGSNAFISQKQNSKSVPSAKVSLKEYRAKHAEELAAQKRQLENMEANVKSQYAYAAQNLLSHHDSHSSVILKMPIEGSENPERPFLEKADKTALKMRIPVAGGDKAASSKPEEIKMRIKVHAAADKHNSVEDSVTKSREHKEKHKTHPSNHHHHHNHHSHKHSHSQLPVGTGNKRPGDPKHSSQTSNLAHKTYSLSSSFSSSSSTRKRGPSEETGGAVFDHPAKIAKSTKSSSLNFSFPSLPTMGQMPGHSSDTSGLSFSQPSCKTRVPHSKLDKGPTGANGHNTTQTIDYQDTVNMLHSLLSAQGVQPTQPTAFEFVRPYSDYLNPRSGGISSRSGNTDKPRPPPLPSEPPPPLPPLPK

Structure (SMILES)	IC50 (CDK9/CyclinT1) [nM]	IC50 (CDK2/CyclinE1) [nM]	IC50 (CDK1/CyclinB) [nM]	IC50 (CDK7/CyclinH/MAT1) [nM]	IC50 (CDK4/Cyclin D1) [nM]	IC50 (CDK6/CyclinD1) [nM]
CNS(=O)(=O)N1CCC(Nc2ncc(C(F)(F)F)c(OC3CCCCCC3)n2)CC1 [Example 129]	10 to 100	< 10	10 to 100	≥ 1000	< 10	100 to 1000
CNS(=O)(=O)c1ccc(Nc2ncc(Cl)c(OC3CCCC3O)n2)cc1 (single isomer, unassigned) [Example 137a]	100 to 1000	< 10	10 to 100	100 to 1000	100 to 1000	10 to 100
Cc1cnc(Nc2ccc(S(=O)(=O)NC(C)C)cc2)nc1OC1CCCC1O (single isomer, unassigned) [Example 147a]	100 to 1000	< 10	10 to 100	100 to 1000	≥ 1000	100 to 1000
[2H]C([2H])([2H])NS(=O)(=O)c1ccc(Nc2ncc(CC)c(OC3CCOCC3O)n2)cc1 (single isomer, unassigned) [Example 151a]	≥ 1000	< 10	100 to 1000	100 to 1000	≥ 1000	100 to 1000
O=S(=O)(NC1CC1)c1ccc(Nc2ncc(C(F)(F)F)c(OC3CCCC3O)n2)cc1 (single isomer, unassigned) [Example 107a]	100 to 1000	< 10	10 to 100	100 to 1000	100 to 1000	100 to 1000
Cn1cc(S(=O)(=O)N2CCC(Nc3ncc(C#N)c(OCC4(C)CCCC4)n3)CC2)cn1 [Example 62]	100 to 1000	< 10	< 10	100 to 1000	< 10	10 to 100
Cn1ccc(S(=O)(=O)N2CCC(Nc3ncc(C#N)c(OCC4(C)CCCC4)n3)CC2)n1 [Example 63]	100 to 1000	< 10	< 10	100 to 1000	< 10	< 10
CC1(O)CC(F)(F)CCC1Oc1nc(NC2CCN(S(C)(=O)=O)CC2)ncc1C#N (single isomer, unassigned) [Example 47b]	≥ 1000	100 to 1000	≥ 1000	≥ 1000	100 to 1000	100 to 1000
CC(C)CS(=O)(=O)N1CCC(Nc2ncc(C#N)c(OC3CCCC3(C)O)n2)CC1 (single isomer, unassigned) [Example 39a]	100 to 1000	< 10	10 to 100	100 to 1000	10 to 100	< 10
Cn1cc(S(=O)(=O)N2CCC(Nc3ncc(C#N)c(OCC4(C)CCC4)n3)CC2)cn1 [Example 60]	100 to 1000	< 10	< 10	100 to 1000	< 10	10 to 100
CNS(=O)(=O)c1ccc(Nc2ncc(C(F)(F)F)c(OC3CCCC3O)n2)cc1 (single isomer, unassigned) [Example 105a]	100 to 1000	< 10	10 to 100	100 to 1000	100 to 1000	100 to 1000
N#Cc1cnc(Nc2ccc(S(N)(=O)=O)cc2)nc1OC1CCCC1O (single isomer, unassigned) [Example 20b]	100 to 1000	10 to 100	100 to 1000	≥ 1000	100 to 1000	100 to 1000
N#Cc1cnc(Nc2ccc(S(N)(=O)=O)cc2)nc1-c1cccc(O)c1 [Example 98]	10 to 100	< 10	10 to 100	≥ 1000	10 to 100	10 to 100
CNS(=O)(=O)N1CCC(Nc2ncc(C#N)c(OCC3(C)CCCC3)n2)CC1 [Example 55]	100 to 1000	< 10	10 to 100	≥ 1000	< 10	10 to 100
N#Cc1cnc(Nc2ccc(S(=O)(=O)NC3CCC3)cc2)nc1OC1CCC[C@H]1O (mixture of isomers) [Example 25]	100 to 1000	< 10	10 to 100	≥ 1000	100 to 1000	10 to 100
CNS(=O)(=O)c1ccc(Nc2ncc(C(F)(F)F)c(OC3CCOCC3O)n2)cc1 (single isomer, unassigned) [Example 116a]	100 to 1000	< 10	10 to 100	100 to 1000	100 to 1000	100 to 1000

Structure (SMILES)	IC50 (CDK9/CyclinT1) [nM]	IC50 (CDK2/CyclinE1) [nM]	IC50 (CDK1/CyclinB) [nM]	IC50 (CDK7/CyclinH/MAT1) [nM]	IC50 (CDK4/Cyclin D1) [nM]	IC50 (CDK6/CyclinD1) [nM]
CC1(COc2nc(NC3CCN(S(C)(=O)=O)CC3)ncc2C(F)(F)F)CCCC1 [Example 128]	10 to 100	< 10	10 to 100	≥ 1000	< 10	10 to 100
CC1(O)CCCC1Oc1nc(NC2CCN(S(=O)(=O)CC3CCOC3)CC2)ncc1C#N (single isomer, unassigned) [Example 40a]	100 to 1000	< 10	10 to 100	100 to 1000	< 10	< 10
N#Cc1cnc(Nc2ccc(S(N)(=O)=O)cc2)nc1-c1cccc(C2CC2)c1 [Example 96]	100 to 1000	10 to 100	100 to 1000	≥ 1000	10 to 100	≥ 1000
NS(=O)(=O)c1ccc(Nc2ncc(C(F)(F)F)c(O[C@@H]3CCC[C@@H]3O)n2)cc1 (single isomer, unassigned) [Example 99a, cis-4-((4-((2-hydroxycyclopentyl)oxy)-5-(trifluoromethyl)pyrimidin-2-yl)amino)benzenesulfonamide]	10 to 100	< 10	10 to 100	100 to 1000	100 to 1000	10 to 100
CC1(COc2nc(NC3CCN(S(C)(=O)=O)CC3)ncc2C#N)CCC1 [Example 53]	100 to 1000	< 10	10 to 100	100 to 1000	< 10	10 to 100
[2H]C([2H])([2H])NS(=O)(=O)c1ccc(Nc2ncc(CC)c(OC3CCCC3O)n2)cc1 (single isomer, unassigned) [Example 149a]	100 to 1000	< 10	10 to 100	100 to 1000	100 to 1000	100 to 1000
NS(=O)(=O)c1ccc(Nc2ncc(Br)c(OC3CCCC3O)n2)cc1 (single isomer, unassigned) [Example 141a]	10 to 100	< 10	10 to 100	100 to 1000	10 to 100	10 to 100
CNS(=O)(=O)c1ccc(Nc2ncc(C#N)c(OC3CCCC3(C)O)n2)cc1 (single isomer, unassigned) [Example 34a]	100 to 1000	< 10	< 10	10 to 100	10 to 100	10 to 100
NS(=O)(=O)c1ccc(Nc2ncc(C(F)(F)F)c(OC3CCCCC3O)n2)cc1 (single isomer, unassigned) [Example 111b]	10 to 100	< 10	< 10	100 to 1000	10 to 100	10 to 100
CS(=O)(=O)N1CCC(Nc2ncc(C(F)(F)F)c(OC3CCCCC3O)n2)CC1 (single isomer, unassigned) [Example 120a]	100 to 1000	< 10	10 to 100	10 to 100	10 to 100	10 to 100
[2H]C([2H])([2H])NS(=O)(=O)c1ccc(Nc2ncc(C(F)(F)F)c(O[C@H]3CCOC[C@H]3O)n2)cc1 (single isomer, unassigned) [Example 100a, cis-4-((4-((3-hydroxytetrahydro-2H-pyran-4-yl)oxy)-5-(trifluoromethyl)pyrimidin-2-yl)amino)-N-(methyl-d3)benzenesulfonamide]	100 to 1000	< 10	10 to 100	100 to 1000	100 to 1000	100 to 1000
CC1(COc2nc(NC3CCN(S(=O)(=O)CCO)CC3)ncc2C#N)CCCC1 [Example 57]	10 to 100	< 10	< 10	100 to 1000	< 10	< 10
N#Cc1cnc(Nc2ccc(S(=O)(=O)NC3CC(F)C3)cc2)nc1OC1CCCCC1O (single isomer, unassigned) [Example 31a]	100 to 1000	< 10	10 to 100	≥ 1000	10 to 100	100 to 1000
[2H]C([2H])([2H])NS(=O)(=O)c1ccc(Nc2ncc(C#N)c(OC3CCCOCC3)n2)cc1 (single isomer, unassigned) [Example 33a]	100 to 1000	< 10	10 to 100	≥ 1000	10 to 100	100 to 1000
[2H]C([2H])([2H])NS(=O)(=O)c1ccc(Nc2ncc(C)c(OC3CCCC3O)n2)cc1 (single isomer, unassigned) [Example 148a]	100 to 1000	< 10	100 to 1000	≥ 1000	≥ 1000	100 to 1000
Cn1cc(S(=O)(=O)N2CCC(Nc3ncc(C#N)c(O[C@@H]4CCC(F)(F)C[C@]4(C)O)n3)CC2)cn1 (relative stereo) [Example 7a, cis-4-((4,4-difluoro-2-hydroxy-2-methylcyclohexyl)oxy)-2-((1-((1-methyl-1H-pyrazol-4-yl)sulfonyl)piperidin-4-yl)amino)pyrimidine-5-carbonitrile]	100 to 1000	< 10	< 10	10 to 100	< 10	< 10
